Active and inactive are the calls of the source. The calls are words filed in the database; no cut-off is given here.
Assays:
[1] = molecular target: Protein kinase C beta type (Homo sapiens) (UniProt P05771); test: Inhibition of PKCb2 (unknown origin) at 1 uM
[2] = molecular target: Rhodopsin kinase GRK1 (Homo sapiens) (UniProt Q15835); test: Inhibition of GRK1 (unknown origin) at 1 uM
[3] = molecular target: Fibroblast growth factor receptor 4 (Homo sapiens) (UniProt P22455); test: Inhibition of FGFR4 (unknown origin) at 1 uM
[4] = molecular target: Vascular endothelial growth factor receptor 1 (Homo sapiens) (UniProt P17948); test: Inhibition of FLT1 (unknown origin) at 1 uM
Chain of Vascular endothelial growth factor receptor 1 (Homo sapiens) (P17948 whole entry): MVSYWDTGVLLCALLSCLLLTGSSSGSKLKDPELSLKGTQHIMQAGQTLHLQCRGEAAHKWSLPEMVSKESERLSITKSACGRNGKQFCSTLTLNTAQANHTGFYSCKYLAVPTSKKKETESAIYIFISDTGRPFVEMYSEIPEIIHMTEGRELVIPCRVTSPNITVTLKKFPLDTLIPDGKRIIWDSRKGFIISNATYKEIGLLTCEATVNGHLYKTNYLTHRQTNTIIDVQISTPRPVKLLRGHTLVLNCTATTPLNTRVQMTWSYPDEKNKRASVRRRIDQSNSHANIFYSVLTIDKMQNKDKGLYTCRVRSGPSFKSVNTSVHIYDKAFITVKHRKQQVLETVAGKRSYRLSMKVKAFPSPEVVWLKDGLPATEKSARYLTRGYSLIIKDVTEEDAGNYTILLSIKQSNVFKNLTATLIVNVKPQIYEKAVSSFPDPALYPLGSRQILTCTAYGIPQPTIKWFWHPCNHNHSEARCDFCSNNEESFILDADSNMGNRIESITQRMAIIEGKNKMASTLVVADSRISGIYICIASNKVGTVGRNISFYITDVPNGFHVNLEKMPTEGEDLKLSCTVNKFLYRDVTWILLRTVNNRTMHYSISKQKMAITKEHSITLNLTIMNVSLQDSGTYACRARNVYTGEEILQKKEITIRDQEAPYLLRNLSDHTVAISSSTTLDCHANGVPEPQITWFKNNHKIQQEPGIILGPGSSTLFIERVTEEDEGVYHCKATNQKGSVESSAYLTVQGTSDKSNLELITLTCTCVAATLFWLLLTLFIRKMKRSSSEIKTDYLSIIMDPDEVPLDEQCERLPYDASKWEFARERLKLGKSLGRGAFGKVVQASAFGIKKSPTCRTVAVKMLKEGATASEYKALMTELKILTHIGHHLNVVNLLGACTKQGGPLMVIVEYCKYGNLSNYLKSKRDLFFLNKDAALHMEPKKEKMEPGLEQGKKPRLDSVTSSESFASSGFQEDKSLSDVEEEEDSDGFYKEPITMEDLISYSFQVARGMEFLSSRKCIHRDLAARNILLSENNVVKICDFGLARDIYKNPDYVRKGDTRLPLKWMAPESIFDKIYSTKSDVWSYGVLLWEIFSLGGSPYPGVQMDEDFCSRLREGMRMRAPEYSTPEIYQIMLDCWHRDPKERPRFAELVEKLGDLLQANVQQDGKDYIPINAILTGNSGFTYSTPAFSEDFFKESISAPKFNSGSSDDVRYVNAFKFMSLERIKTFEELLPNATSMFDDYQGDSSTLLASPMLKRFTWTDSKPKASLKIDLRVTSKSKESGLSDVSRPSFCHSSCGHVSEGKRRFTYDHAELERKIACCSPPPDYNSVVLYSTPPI

[5] = molecular target: Tyrosine-protein kinase CSK (Homo sapiens) (UniProt P41240); test: Inhibition of CSK (unknown origin) at 1 uM
Chain of Tyrosine-protein kinase CSK (Homo sapiens) (P41240 2-450 limits assumed): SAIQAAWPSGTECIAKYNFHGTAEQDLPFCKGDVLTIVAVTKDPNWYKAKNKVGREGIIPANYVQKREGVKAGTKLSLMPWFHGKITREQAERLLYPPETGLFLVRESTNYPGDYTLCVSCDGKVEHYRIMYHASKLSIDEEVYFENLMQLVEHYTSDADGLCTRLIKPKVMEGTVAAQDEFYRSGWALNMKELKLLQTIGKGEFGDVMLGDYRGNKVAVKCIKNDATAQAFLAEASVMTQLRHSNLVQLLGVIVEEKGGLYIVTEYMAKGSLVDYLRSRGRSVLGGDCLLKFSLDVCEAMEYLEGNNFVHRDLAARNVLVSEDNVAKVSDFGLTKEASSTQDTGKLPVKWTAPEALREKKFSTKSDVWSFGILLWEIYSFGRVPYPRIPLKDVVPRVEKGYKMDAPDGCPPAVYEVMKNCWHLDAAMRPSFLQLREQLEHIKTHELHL

[6] = molecular target: MAP kinase-activated protein kinase 3 (Homo sapiens) (UniProt Q16644); test: Inhibition of MAPKAPK3 (unknown origin) at 1 uM
Chain of MAP kinase-activated protein kinase 3 (Homo sapiens) (Q16644 whole entry, looked up): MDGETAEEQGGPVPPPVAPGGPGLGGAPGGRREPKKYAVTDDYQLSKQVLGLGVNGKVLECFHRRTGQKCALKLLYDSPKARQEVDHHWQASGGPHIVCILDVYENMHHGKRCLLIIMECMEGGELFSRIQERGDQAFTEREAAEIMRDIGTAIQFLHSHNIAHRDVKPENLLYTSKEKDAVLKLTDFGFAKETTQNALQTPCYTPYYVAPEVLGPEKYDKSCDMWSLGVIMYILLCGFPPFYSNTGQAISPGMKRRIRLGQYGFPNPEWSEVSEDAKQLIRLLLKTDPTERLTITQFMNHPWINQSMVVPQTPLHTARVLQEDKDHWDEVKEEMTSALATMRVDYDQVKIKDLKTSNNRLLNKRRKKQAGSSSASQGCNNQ

[7] = molecular target: Mitogen-activated protein kinase kinase kinase 10 (Homo sapiens) (UniProt Q02779); test: Inhibition of MLK2 (unknown origin) at 1 uM
[8] = molecular target: Protein kinase C epsilon type (Homo sapiens) (UniProt Q02156); test: Inhibition of PKCepsilon (unknown origin)at 1 uM
Chain of Protein kinase C epsilon type (Homo sapiens) (Q02156 whole entry): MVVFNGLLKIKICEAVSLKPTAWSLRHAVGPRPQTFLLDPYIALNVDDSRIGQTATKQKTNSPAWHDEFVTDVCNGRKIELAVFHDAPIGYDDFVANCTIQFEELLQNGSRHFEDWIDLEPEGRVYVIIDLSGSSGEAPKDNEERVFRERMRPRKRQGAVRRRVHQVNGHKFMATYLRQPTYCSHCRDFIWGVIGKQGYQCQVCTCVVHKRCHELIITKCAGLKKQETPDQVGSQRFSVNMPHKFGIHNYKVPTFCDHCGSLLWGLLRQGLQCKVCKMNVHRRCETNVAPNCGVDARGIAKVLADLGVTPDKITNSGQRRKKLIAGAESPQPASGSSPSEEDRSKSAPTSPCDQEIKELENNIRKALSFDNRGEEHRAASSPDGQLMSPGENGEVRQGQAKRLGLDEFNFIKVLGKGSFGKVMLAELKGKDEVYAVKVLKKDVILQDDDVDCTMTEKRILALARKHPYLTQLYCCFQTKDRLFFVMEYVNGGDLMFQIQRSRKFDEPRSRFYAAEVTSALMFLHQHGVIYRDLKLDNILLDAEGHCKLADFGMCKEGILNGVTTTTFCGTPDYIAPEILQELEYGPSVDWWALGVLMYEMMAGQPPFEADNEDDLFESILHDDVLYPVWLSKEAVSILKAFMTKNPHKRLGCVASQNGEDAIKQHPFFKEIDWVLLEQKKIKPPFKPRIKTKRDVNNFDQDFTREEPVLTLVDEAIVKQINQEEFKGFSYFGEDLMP

[9] = molecular target: Ribosomal protein S6 kinase alpha-1 (Homo sapiens) (UniProt Q15418); test: Inhibition of RSK1 (unknown origin) at 1 uM
[10] = test system: Rattus norvegicus; test: Toxicity in rat assessed as rat death at […]; format: organism-based; settings: in vivo
[11] = molecular target: Serine/threonine-protein kinase SIK1 (Homo sapiens) (UniProt P57059); test: Inhibition of SIK1 (unknown origin) at 1 uM
[12] = molecular target: Receptor-interacting serine/threonine-protein kinase 2 (Homo sapiens) (UniProt O43353); test: Inhibition of RIPK2 (unknown origin) at 1 uM
[13] = molecular target: CDK3/Cyclin E (Homo sapiens) (UniProt P24864+Q00526); test: Inhibition of CDK3/cyclin-E (unknown origin) at 1 uM; format: protein-complex assay
[14] = molecular target: Tyrosine-protein kinase SYK (Homo sapiens) (UniProt P43405); test: Inhibition of SYK (unknown origin) at 1 uM
[15] = Half life in mouse liver microsomes; format: ADME, Microsome
[16] = molecular target: Serine/threonine-protein kinase WNK3 (Homo sapiens) (UniProt Q9BYP7); test: Inhibition of WNK3 (unknown origin) at 1 uM
[17] = molecular target: Tyrosine-protein kinase Fes/Fps (Homo sapiens) (UniProt P07332); test: Inhibition of FES (unknown origin) at 1 uM
[18] = molecular target: Glycogen synthase kinase-3 beta (Homo sapiens) (UniProt P49841); test: Inhibition of GSK3B (unknown origin) at 1 uM
[19] = molecular target: Leucine-rich repeat serine/threonine-protein kinase 2 (Homo sapiens) (UniProt Q5S007); test: Inhibition of LRRK2 (unknown origin) at 1 uM
[20] = molecular target: Inhibitor of nuclear factor kappa-B kinase subunit alpha (Homo sapiens) (UniProt O15111); test: Inhibition of IKKalpha (unknown origin) at 1 uM
[21] = molecular target: Calcium/calmodulin-dependent protein kinase type 1B (Homo sapiens) (UniProt Q6P2M8); test: Inhibition of CAMK1B (unknown origin) at 1 uM
[22] = molecular target: CDC7/DBF4 (Cell division cycle 7-related protein kinase/Activator of S phase kinase) (Homo sapiens) (UniProt Q9UBU7+O00311); test: Inhibition of CDC7/DBF4 (unknown origin) at 1 uM; format: protein-complex assay
[23] = test system: Mus musculus; test: Toxicity in BALB/c mouse implanted with mouse CT26 cells assessed as weight loss at 50 mg/kg, ip bid for 28 days; format: organism-based; settings: in vivo, 672 h, time 28 day
[24] = molecular target: RAF proto-oncogene serine/threonine-protein kinase (Homo sapiens) (UniProt P04049); test: Inhibition of RAF1 (unknown origin) at 1 uM
[25] = molecular target: Serine/threonine-protein kinase Nek6 (Homo sapiens) (UniProt Q9HC98); test: Inhibition of NEK6 (unknown origin) at 1 uM
Chain of Serine/threonine-protein kinase Nek6 (Homo sapiens) (Q9HC98 whole entry): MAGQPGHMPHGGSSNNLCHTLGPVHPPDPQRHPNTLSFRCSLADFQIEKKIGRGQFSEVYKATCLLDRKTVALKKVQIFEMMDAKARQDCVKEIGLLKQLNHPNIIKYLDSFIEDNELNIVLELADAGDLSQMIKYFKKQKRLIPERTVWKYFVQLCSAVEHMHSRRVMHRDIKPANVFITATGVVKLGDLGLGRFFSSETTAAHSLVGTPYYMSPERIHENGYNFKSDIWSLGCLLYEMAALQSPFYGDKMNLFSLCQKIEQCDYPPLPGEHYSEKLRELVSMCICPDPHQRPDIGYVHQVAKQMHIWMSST

[26] = molecular target: Serine/threonine-protein kinase PAK 5 (Homo sapiens) (UniProt Q9P286); test: Inhibition of PAK5 (unknown origin) at 1 uM
[27] = molecular target: Activin receptor type-1 (Homo sapiens) (UniProt Q04771); test: Inhibition of ALK2 (unknown origin) at 1 uM
[28] = test system: CT26; test: Antitumor activity against mouse CT26 cells implanted in BALB/c mouse assessed as tumor growth inhibition at 50 mg/kg, ip bid for 28 days by vernier caliper method relative to control; format: functional; settings: CT26, 672 h, time 28 day, read-out: TGI
[29] = molecular target: Fibroblast growth factor receptor 3 (Homo sapiens) (UniProt P22607); test: Inhibition of FGFR3 (unknown origin) at 1 uM
[30] = molecular target: Dual specificity testis-specific protein kinase 1 (Homo sapiens) (UniProt Q15569); test: Inhibition of TESK1 (unknown origin) at 1 uM
[31] = molecular target: Mitogen-activated protein kinase 3 (Homo sapiens) (UniProt P27361); test: Inhibition of ERK1 (unknown origin) at 1 uM
[32] = molecular target: Ephrin type-B receptor 4 (Homo sapiens) (UniProt P54760); test: Inhibition of EPHB4 (unknown origin) at 1 uM
[33] = molecular target: Serine/threonine-protein kinase Chk2 (Homo sapiens) (UniProt O96017); test: Inhibition of CHK2 (unknown origin) at 1 uM
[34] = molecular target: Dual specificity testis-specific protein kinase 2 (Homo sapiens) (UniProt Q96S53); test: Inhibition of TESK2 (unknown origin) at 1 uM
[35] = molecular target: Myotonin-protein kinase (Homo sapiens) (UniProt Q09013); test: Inhibition of DMPK (unknown origin) at 1 uM
[36] = molecular target: STE20-like serine/threonine-protein kinase (Homo sapiens) (UniProt Q9H2G2); test: Inhibition of SLK (unknown origin) at 1 uM
[37] = molecular target: RAC-gamma serine/threonine-protein kinase (Homo sapiens) (UniProt Q9Y243); test: Inhibition of AKT3 (unknown origin) at 1 uM
[38] = molecular target: Tyrosine-protein kinase Fer (Homo sapiens) (UniProt P16591); test: Inhibition of FER (unknown origin) at 1 uM
[39] = molecular target: Serine/threonine-protein kinase MRCK gamma (Homo sapiens) (UniProt Q6DT37); test: Inhibition of DMPK2 (unknown origin) at 1 uM
[40] = molecular target: Tyrosine-protein kinase FRK (Homo sapiens) (UniProt P42685); test: Inhibition of FRK (unknown origin) at 1 uM
Chain of Tyrosine-protein kinase FRK (Homo sapiens) (P42685 whole entry): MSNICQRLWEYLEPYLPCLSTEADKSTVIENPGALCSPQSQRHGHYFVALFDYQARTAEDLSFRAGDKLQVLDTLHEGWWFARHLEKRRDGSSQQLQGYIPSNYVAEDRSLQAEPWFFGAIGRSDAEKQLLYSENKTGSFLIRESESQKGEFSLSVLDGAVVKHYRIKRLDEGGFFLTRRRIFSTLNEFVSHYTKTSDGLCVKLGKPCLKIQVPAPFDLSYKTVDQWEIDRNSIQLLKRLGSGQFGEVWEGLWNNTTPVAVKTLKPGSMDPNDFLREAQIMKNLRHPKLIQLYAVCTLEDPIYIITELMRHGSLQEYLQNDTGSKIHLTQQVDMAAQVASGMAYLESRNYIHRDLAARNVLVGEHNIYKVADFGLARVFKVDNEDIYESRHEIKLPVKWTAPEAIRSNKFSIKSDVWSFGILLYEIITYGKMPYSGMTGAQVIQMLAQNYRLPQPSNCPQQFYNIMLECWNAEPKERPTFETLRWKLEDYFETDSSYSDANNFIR

[41] = molecular target: Serine/threonine-protein kinase PLK3 (Homo sapiens) (UniProt Q9H4B4); test: Inhibition of PLK3 (unknown origin) at 1 uM
[42] = molecular target: Death-associated protein kinase 3 (Homo sapiens) (UniProt O43293); test: Inhibition of ZIPK (unknown origin) at 1 uM
[43] = molecular target: Dual specificity tyrosine-phosphorylation-regulated kinase 1B (Homo sapiens) (UniProt Q9Y463); test: Inhibition of DYRK1B (unknown origin) at 1 uM
Chain of Dual specificity tyrosine-phosphorylation-regulated kinase 1B (Homo sapiens) (Q9Y463 whole entry, looked up, canonical isoform): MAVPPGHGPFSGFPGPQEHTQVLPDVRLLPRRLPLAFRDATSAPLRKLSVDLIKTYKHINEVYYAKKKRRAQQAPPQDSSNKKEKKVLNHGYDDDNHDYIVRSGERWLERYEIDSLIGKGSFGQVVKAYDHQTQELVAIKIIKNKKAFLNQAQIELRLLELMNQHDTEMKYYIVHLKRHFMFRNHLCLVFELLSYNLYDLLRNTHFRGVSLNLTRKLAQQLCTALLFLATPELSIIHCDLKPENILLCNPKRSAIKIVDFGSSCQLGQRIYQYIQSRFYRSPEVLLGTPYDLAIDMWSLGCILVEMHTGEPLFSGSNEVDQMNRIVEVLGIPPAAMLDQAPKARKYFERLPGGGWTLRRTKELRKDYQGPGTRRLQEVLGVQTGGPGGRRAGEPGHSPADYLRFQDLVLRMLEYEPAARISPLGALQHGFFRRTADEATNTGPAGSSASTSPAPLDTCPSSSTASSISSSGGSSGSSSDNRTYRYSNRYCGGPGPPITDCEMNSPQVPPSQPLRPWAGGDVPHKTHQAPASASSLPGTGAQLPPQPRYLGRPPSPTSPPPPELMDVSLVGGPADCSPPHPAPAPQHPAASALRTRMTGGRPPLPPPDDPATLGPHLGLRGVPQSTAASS

[44] = molecular target: Casein kinase I isoform epsilon (Homo sapiens) (UniProt P49674); test: Inhibition of CK1E (unknown origin) at 1 uM

Chain of Protein kinase C beta type (Homo sapiens) (P05771 2-671 limits assumed): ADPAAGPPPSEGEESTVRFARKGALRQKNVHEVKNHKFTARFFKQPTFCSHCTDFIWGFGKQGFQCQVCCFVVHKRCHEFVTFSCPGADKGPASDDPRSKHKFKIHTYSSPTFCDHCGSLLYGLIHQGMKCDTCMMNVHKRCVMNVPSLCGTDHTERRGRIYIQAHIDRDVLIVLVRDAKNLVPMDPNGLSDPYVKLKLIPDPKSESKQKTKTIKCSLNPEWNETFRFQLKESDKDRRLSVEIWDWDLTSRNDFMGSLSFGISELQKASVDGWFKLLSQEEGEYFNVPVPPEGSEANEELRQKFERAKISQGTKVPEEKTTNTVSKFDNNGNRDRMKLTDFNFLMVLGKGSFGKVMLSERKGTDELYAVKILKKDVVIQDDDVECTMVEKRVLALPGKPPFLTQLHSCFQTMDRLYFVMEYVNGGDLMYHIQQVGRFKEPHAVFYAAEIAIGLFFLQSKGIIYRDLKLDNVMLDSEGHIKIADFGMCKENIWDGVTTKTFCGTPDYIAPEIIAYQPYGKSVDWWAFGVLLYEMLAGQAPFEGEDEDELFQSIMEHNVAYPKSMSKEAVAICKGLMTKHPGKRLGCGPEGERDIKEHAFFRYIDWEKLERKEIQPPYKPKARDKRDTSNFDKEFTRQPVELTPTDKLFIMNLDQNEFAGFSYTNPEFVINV

OCCOCc1cn(CCNc2nonc2/C(=N/O)Nc2ccc(F)c(Br)c2)nn1
inhibition [1]: inactive
inhibition [2]: inactive
inhibition [3]: inactive
inhibition [4]: inactive
inhibition [5]: inactive
inhibition [6]: inactive
inhibition [7]: inactive
inhibition [8]: inactive
inhibition [9]: inactive
Activity [10]: Non-Toxic
inhibition [11]: inactive
inhibition [12]: inactive
inhibition [13]: inactive
inhibition [14]: inactive
half-life [15]: 43.2 min
inhibition [16]: inactive
inhibition [17]: inactive
inhibition [18]: inactive
inhibition [19]: inactive
inhibition [20]: inactive
inhibition [21]: inactive
inhibition [22]: inactive
Activity [23]: Non-Toxic
inhibition [24]: inactive
inhibition [25]: inactive
inhibition [26]: inactive
inhibition [27]: inactive
inhibition in vivo at 50 mg/kg [28]: 69.7%
inhibition [29]: inactive
inhibition [30]: inactive
inhibition [31]: inactive
inhibition [32]: inactive
inhibition [33]: inactive
inhibition [34]: inactive
inhibition [35]: inactive
inhibition [36]: inactive
inhibition [37]: inactive
inhibition [38]: inactive
inhibition [39]: inactive
inhibition [40]: inactive
inhibition [41]: inactive
inhibition [42]: inactive
inhibition [43]: inactive
inhibition [44]: inactive
